Assay results taken from ChEMBL document CHEMBL1124125, “6-(Alkylamino)-3-aryl-1,2,4-triazolo[3,4-a]phthalazines. A new class of benzodiazepine receptor ligands” (J Med Chem, 1988).

Columns and labels:
Mus musculus [1] = experiment: Anticonvulsant activity when bicuculline given subcutaneously in mouse; type: functional; settings: sc
Rattus norvegicus = experiment: Activity was measured by rotarod test by peroral administration in rat; type: functional; settings: po
Mus musculus [2] = experiment: Anticonvulsant activity when lethal dose of strychnine given subcutaneously in mouse; type: ADME, organism-based; settings: in vivo, sc
Mus musculus [3] = experiment: Activity was measured by rotarod test by intraperitoneal administration in mouse.; type: functional; settings: ip
Mus musculus [4] = organism: Mus musculus; experiment: Anticonvulsant activity when maximal electroshock is induced in mouse; type: functional

CNC1=Nc2ccc(Cl)cc2C(c2ccccc2)=[N+]([O-])C1 [CHLORDIAZEPOXIDE]
ED50 (Mus musculus [1]): 4.7 mg/kg | ED50 (Rattus norvegicus): 68.4 mg/kg | ED50 (Mus musculus [2]): 7.5 mg/kg | ED50 (Mus musculus [3]): 11 mg/kg | ED50 (Mus musculus [4]): 23 mg/kg
